Results taken from patent US5604214A, “Reduction of boar odor in meat” (Pfizer Inc., priority 1993, dated 1997).

System: boar salivary gland steroid 5-α-reductase (boar 4-ene-5-α-reductase enzyme)
Experiment: Boar steroid 5α-reductase enzyme activity and inhibitor potency assay ([14C]testosterone conversion, boar salivary gland microsomes)
Format: biochemical
Conditions: 500 nM compound, 37° C., 30 minutes
Procedure: Microsomal preparations from boar salivary glands were prepared by the protocol desbribed by Liang, et al. for human prostatic microsomal 5-α-reductase.
Assay for enzyme activity and inhibitor potency.
A constant amount of [^14 C]testosterone (50 to 55 mCi/mmol) in ethanol and varying amounts of potential inhibitor (or no inhibitor i.e. control) in ethanol were deposited in test tubes and concentrated to dryness in vacuo. Assays for boar steroid 5α-reductase enzyme were conducted with a sample of the boar salivary gland 5-α-reductase in 50 mM phosphate buffer, pH 7.5 or in 50 mM citrate buffer at pH 5.0. To each tube was added buffer, 40 μl of microsomal preparation from boar salivary glands (hereinafter boar salivary gland steroid 5-α-reductase) and 20 μl of 20 mM NADPH to a final volume of 0.5 mL.
After incubating the solution at 37° C. for 30 minutes the reaction was quenched by the addition of 4 mL ethyl acetate and 0.25 μmol each of testosterone, 5α-dihydrotestosterone, androstanediol, and androstanedione as carriers. The organic layer was removed to a second test tube and evaporated to dryness in a Speed Vac. The residue was dissolved in 40 μL chloroform, spotted on an individual lane of a 20×20 cm prechannelled silica gel TLC plate (Si 250F-PA, Baker Chemical) and developed twice with acetone:chloroform (1:9). The radiochemical content in the bands of the substrate and the products was determined with a BIOSCAN Imaging Scanner (Bioscan Inc., Washington, D.C.). The percent of recovered radiolabel converted to product was calculated, from which enzyme activity was determined. All incubations were conducted such that no more than 20% of the substrate (testosterone) was consumed.
By following the above procedure in the absence of an inhibitor (i.e. control) a significant formation of 5-α-dihydrotestosterone, and the androstanediols occurred which indicated the presence of a high level of 4-ene-5-α-reductase enzyme activity in the microsomes prepared from the salivary glands of the boar.

[1] = pH 7.5 (50 mM phosphate buffer)

CC(C)(C)NC(=O)[C@H]1CC[C@H]2[C@@H]3CC[C@H]4NC(=O)C=C[C@]4(C)[C@H]3CC[C@]12C [17β-(N-t-butylcarbamoyl)-4-aza-5α-androst-1-en-3-one]
inhibition of the boar 5-α-reductase enzyme (vs. control) [1]: 50%

CC(C)(C)NC(=O)[C@H]1CC[C@H]2[C@@H]3CCc4cc(C(=O)O)ccc4[C@H]3CC[C@]12C [17β-(N-t-butylcarboxamide)-estr-1,3,5(10)triene-3-carboxylic acid]
inhibition of the boar 5-α-reductase enzyme (vs. control) (pH 5 (50 mM citrate buffer)): ~65%
inhibition of the boar 5-α-reductase enzyme (vs. control) [1]: 80%

CC(C)(C)NC(=O)[C@H]1CC[C@H]2[C@@H]3CC=C4C=C(C(=O)O)CC[C@]4(C)[C@H]3CC[C@]12C [17β-(N-t-butylcarboxamide)-androst-3,5-diene-3-carboxylic acid]
inhibition of the boar 5-α-reductase enzyme (vs. control) [1]: 50%
